The values that follow come from patent US10975119B2, “Selective cysteine protease inhibitors and uses thereof” (Genesis Technologies Limited, priority 2011, dated 2021).

SMILES strings stand for the structures. Where two headings read alike, the source gives them in different places.

What all share (format): biochemical
Assay [1] has as its target T1, Caspase-8 (Homo sapiens, UniProt Q14790).
T1 construct: mixing the compounds with the respective active caspases; purchased BioVision K158-100
The assay is described as follows: Caspase-8 inhibitor screening assay (BioVision kit, IETD-AFC). Conditions: read-out: IC50 Casp8. The procedure:
(§1) The efficacy of an array of compounds as an inhibitor of the activity of Caspases 1 through 10 were assessed by using the respective Caspase Inhibitor Drug Screening Kits (Caspase-1 Catalog #: K151-100, Caspase-2 Catalog #: K152-100, Caspase-3 Catalog #: K153-100, Caspase-4 Catalog #: K154-100, Caspase-5 Catalog #: K155-100, Caspase-6 Catalog #: K156-100, Caspase-7 Catalog #: K157-100, Caspase-8 Catalog #: K158-100, Caspase-9 Catalog #: K159-100, Caspase-10 Catalog #: K160-100, BioVision) following the instructions of the manufacturer. […] Active caspases cleaved their respective synthetic substrates to release free AFC, which was then quantified by fluorometry.
(§2) Briefly, the compounds were first tested at 2 concentrations (10 uM and 100 uM final) to determine if there is a hit. […] Each condition was tested in duplicates. […] For some samples, a smaller range of concentrations was tested depending on the % Inhibition results at 10 uM and 100 uM. Results were summarized in Tables 2, 3, and 4 herein after. Table 2 represents the IC50 values (uM) of the test compounds as inhibitors of the activity of the various caspases.
(§3) (*) RFU (no inhibitor control)—RFU (compound at a specific concentration)
(§4) RFU (no inhibitor control)

Assay [2] concerns the target T2, Caspase-5 (Homo sapiens, UniProt P51878).
T2 construct: mixing the compounds with the respective active caspases; purchased BioVision K155-100
T2 sequence (P51878 137-327 limits assumed): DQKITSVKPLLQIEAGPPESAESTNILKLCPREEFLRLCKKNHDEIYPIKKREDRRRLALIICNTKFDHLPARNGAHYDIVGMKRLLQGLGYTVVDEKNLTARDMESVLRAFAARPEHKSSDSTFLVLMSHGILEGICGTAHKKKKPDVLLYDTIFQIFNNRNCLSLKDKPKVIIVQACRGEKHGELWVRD
T2 sequence (P51878 347-434 limits assumed): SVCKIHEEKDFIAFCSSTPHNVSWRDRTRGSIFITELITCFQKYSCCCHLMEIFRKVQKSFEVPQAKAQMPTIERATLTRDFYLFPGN
The assay is described as follows: Caspase-5 inhibitor screening assay (BioVision kit, WEHD-AFC). As to conditions: read-out: IC50 Casp5. The procedure:
as §1, §2, §3, §4

Assay [3] deals with T3, Caspase-3 (Homo sapiens, UniProt P42574).
T3 construct: mixing the compounds with the respective active caspases; purchased BioVision K153-100
T3 sequence (P42574 29-175 limits assumed): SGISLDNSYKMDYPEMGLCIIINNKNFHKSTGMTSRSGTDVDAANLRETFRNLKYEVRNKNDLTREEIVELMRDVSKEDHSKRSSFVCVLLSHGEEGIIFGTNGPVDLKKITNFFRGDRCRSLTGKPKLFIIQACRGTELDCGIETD
T3 sequence (P42574 176-277 limits assumed): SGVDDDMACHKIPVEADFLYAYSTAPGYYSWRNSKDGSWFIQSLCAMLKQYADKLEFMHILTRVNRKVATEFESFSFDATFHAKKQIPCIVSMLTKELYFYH
The assay is described as follows: Caspase-3 inhibitor screening assay (BioVision kit, DEVD-AFC). Conditions: read-out: IC50 Casp3. The procedure: as §1, §2, §3, §4

The target in assay [4] is T4, Caspase-9 (Homo sapiens, UniProt P55211).
T4 construct: purchased BioVision K159-100
T4 sequence (P55211 1-315 limits assumed): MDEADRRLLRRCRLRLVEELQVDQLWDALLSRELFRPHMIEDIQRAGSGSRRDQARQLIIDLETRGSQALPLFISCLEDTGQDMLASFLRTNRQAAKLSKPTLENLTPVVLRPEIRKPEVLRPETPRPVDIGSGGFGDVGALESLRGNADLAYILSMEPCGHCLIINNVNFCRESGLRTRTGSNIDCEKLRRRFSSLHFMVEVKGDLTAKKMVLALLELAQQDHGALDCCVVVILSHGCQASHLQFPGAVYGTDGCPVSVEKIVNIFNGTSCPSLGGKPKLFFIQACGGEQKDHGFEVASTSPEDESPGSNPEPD
T4 sequence (P55211 331-416 limits assumed): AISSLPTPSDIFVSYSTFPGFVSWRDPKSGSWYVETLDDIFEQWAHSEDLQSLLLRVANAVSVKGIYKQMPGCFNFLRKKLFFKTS
The assay is described as follows: Caspase-9 inhibitor screening assay (BioVision kit, LEHD-AFC). Conditions: read-out: IC50 Casp9. The procedure:
as §1, §2, §3, §4

The target in assay [5] is T5, Caspase-10 (Homo sapiens, UniProt Q92851).
T5 construct: mixing the compounds with the respective active caspases; purchased BioVision K160-100
T5 sequence (Q92851 220-415 limits assumed): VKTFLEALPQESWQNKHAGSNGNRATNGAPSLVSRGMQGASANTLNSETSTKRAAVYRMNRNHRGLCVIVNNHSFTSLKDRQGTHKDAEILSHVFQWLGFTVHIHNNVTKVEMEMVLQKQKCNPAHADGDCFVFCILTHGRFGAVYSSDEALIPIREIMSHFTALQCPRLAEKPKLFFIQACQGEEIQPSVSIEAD
T5 sequence (Q92851 416-521 limits assumed): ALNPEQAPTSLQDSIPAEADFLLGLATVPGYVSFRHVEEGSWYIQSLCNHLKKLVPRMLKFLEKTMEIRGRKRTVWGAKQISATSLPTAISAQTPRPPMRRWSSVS
The assay is described as follows: Caspase-10 inhibitor screening assay (BioVision kit, AEVD-AFC). As to conditions: read-out: IC50 Casp10. The procedure: as §1, §2, §3, §4

Assay [6] addresses T6, Caspase-6 (Homo sapiens, UniProt P55212).
T6 construct: mixing the compounds with the respective active caspases; purchased BioVision K156-100
T6 sequence (P55212 24-179 limits assumed): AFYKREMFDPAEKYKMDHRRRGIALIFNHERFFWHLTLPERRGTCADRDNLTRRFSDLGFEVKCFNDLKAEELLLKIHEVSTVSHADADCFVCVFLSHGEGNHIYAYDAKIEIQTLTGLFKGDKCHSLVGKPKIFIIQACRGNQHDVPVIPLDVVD
T6 sequence (P55212 194-293 limits assumed): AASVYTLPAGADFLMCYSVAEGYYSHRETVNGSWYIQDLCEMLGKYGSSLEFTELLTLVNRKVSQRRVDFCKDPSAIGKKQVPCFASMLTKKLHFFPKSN
The assay is described as follows: Caspase-6 inhibitor screening assay (BioVision kit, VEID-AFC). The procedure: as §1, §2, §3, §4

For assay [7], the target named is T7, Caspase-4 (Homo sapiens, UniProt P49662).
T7 construct: mixing the compounds with the respective active caspases; purchased BioVision K154-100
T7 sequence (P49662 81-270 limits assumed): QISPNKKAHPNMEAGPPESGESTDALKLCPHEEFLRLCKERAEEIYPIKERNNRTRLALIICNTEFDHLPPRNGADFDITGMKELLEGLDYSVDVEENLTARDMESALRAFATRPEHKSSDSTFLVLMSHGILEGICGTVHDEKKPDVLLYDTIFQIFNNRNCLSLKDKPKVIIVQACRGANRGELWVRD
T7 sequence (P49662 290-377 limits assumed): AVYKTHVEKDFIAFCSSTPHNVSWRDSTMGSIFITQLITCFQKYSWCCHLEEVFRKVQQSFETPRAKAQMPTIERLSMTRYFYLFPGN
The assay is described as follows: Caspase-4 inhibitor screening assay (BioVision kit, LEVD-AFC). As to conditions: read-out: IC50 Casp4. The procedure:
as §1, §2, §3, §4

The target in assay [8] is T8, Caspase-1 (Homo sapiens, UniProt P29466).
T8 construct: mixing the compounds with the respective active caspases; purchased BioVision K151-100
T8 sequence (P29466 120-297 limits assumed): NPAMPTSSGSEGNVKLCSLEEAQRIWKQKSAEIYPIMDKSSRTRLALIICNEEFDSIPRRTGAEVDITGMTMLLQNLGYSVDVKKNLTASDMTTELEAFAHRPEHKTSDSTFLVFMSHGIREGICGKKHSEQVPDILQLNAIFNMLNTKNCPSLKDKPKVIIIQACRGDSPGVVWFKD
T8 sequence (P29466 317-404 limits assumed): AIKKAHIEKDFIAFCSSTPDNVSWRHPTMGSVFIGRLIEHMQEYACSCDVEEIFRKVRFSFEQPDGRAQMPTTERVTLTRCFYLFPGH
The assay is described as follows: Caspase-1 inhibitor screening assay (BioVision kit, YVAD-AFC). Conditions: read-out: IC50 Casp1. The procedure: as §1, §2, §3, §4

The target in assay [9] is T9, Caspase-7 (Homo sapiens, UniProt P55210).
T9 construct: mixing the compounds with the respective active caspases; purchased BioVision K157-100
T9 sequence (P55210 24-198 limits assumed): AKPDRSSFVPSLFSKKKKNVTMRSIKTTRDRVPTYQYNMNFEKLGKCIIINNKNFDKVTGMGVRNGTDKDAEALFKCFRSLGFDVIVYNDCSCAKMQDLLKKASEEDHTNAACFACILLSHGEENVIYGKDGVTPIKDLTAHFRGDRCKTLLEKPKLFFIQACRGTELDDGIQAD
T9 sequence (P55210 207-303 limits assumed): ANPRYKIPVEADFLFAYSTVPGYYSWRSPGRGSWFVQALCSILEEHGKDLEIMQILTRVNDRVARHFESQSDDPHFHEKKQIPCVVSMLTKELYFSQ
The assay is described as follows: Caspase-7 inhibitor screening assay (BioVision kit, DEVD-AFC). As to conditions: read-out: IC50 Casp7. The procedure: as §1, §2, §3, §4

T1 sequence (Q14790 217-374 limits assumed): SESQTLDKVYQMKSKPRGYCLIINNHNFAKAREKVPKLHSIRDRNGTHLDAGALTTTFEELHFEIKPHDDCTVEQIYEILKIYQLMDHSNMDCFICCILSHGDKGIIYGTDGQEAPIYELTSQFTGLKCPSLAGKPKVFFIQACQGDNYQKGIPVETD
T1 sequence (Q14790 385-479 limits assumed): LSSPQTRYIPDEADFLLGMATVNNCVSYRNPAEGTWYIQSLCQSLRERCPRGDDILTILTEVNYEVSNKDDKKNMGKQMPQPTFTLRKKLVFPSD

Consider `CCC(C)[C@H](NC(=O)[C@H](CCC(=O)O)NC(=O)[C@@H](NC(=O)OCc1ccccc1)C(C)C)C(=O)N[C@H](/C=C(\Cl)S(C)(=O)=O)CC(=O)O` (stereo partly drawn) [Compound 123, Z-Val-Glu-Ile-Asp-achlorovinyl methyl vinyl sulfone], for which the IC50 in [1] is 530 nM; in assay [2], 4200 nM; in [3] it was 1340 nM; in [4], 6400 nM; in assay [5], 190 nM; in assay [6] (read-out: inhibition (IC50) against Caspase-6), 229 nM. Moreover, the IC50 was 1800 nM in [7] and 3880 nM in assay [8].
Consider `CCOC(=O)/C(Cl)=C/[C@H](CC(=O)O)NC(=O)[C@H]1CCCN1C(=O)[C@@H](NC(=O)c1ccc(N)c(Cl)c1)C(C)(C)C` [Compound 117, 4-amino-3-chlorobenzene carbonyl-t-Leu-Pro-Asp αchlorovinyl Ethyl Vinyl Ester], for which the IC50 was 1400 nM in assay [1]; 900 nM in assay [2]; above 100000 nM in assay [3]; above 100000 nM in assay [9]; above 100000 nM in assay [6] (read-out: IC50 Casp6); 70 nM in assay [7]. Moreover, the IC50 in assay [8] amounted to 110 nM.
`CCOC(=O)/C(Cl)=C/[C@H](CC(=O)O)NC(=O)[C@H]1CCCN1C(=O)[C@H](NC(=O)[C@H](CC(=O)O)NC(=O)OCc1ccccc1)C(C)(C)C` [Compound 57, Z-Asp-t-Leu-Pro-Asp αchlorovinyl Ethyl Vinyl Ester]: the IC50 is 16000 nM in [2]; 1270 nM in [3]; 150 nM in assay [9]; 50 nM in [5]; above 100000 nM in assay [6] (read-out: IC50 Casp6); above 100000 nM in [7]. Besides, the IC50 in assay [8] turned out to be 7900 nM.

The term IC50 denotes the concentration that gives 50% inhibition.
